This is an account of results in patent US11161855B2, “Tricyclic fused thiophene derivatives as JAK inhibitors” (Incyte Corporation, priority 2012, dated 2021).

SMILES strings stand for the structures. Bounds are passed on as bounds.

This test relates to human JAK1 (a.a. 837-1142). The test can be described thus: In vitro JAK kinase assay (HTRF), JAK1. In kind it is biochemical. The settings on record: ratio of IC50s, 1 mM ATP. The method, then: Compounds herein were tested for inhibitory activity of JAK targets according to the following in vitro assay described in Park et al., Analytical Biochemistry 1999, 269, 94-104. The catalytic domains of human JAK1 (a.a. 837-1142), JAK2 (a.a. 828-1132) and JAK3 (a.a. 781-1124) were expressed using baculovirus in insect cells and purified. The catalytic activity of JAK1, JAK2 or JAK3 was assayed by measuring the phosphorylation of a biotinylated peptide. The phosphorylated peptide was detected by homogenous time resolved fluorescence (HTRF). IC50s of compounds were measured for each kinase in the 40 μL reactions that contain the enzyme, ATP and 500 nM peptide in 50 mM Tris (pH 7.8) buffer with 100 mM NaCl, 5 mM DTT, and 0.1 mg/mL (0.01%) BSA. For the 1 mM IC50 measurements, ATP concentration in the reactions was 1 mM. Reactions were carried out at room temperature for 1 hour and then stopped with 20 μL 45 mM EDTA, 300 nM SA-APC, 6 nM Eu-Py20 in assay buffer (Perkin Elmer, Boston, Mass.). Binding to the Europium labeled antibody took place for 40 minutes and HTRF signal was measured on a PHERA star plate reader (BMG, Cary, N.C.). The Example compounds were each tested in the Example A assay (see Table 1 for data for the compounds of the examples as tested by the assay of Example A at 1 mM ATP).
On to `C[C@@H](O)c1nc2cnc3ccsc3c2n1C1CCC(O)(CC#N)CC1` (single isomer, unassigned) [24 (first peak)], for which the JAK2/JAK1 was above 10.
Then `C[C@@H](O)c1nc2cnc3ccsc3c2n1C1CCC(O)(CC#N)CC1` (single isomer, unassigned) [24 (second peak)], with above 10; and `C[C@@H](O)c1nc2cnc3ccsc3c2n1C1CCC(NCCC#N)CC1` (single isomer, unassigned) [30 (first peak)], with above 2; and `C[C@@H](O)c1nc2cnc3ccsc3c2n1C1CCC(NCCC#N)CC1` (single isomer, unassigned) [30 (second peak)], with above 10.
The figure for `Cc1nc2cnc3ccsc3c2n1[C@H]1CC[C@H](CC#N)[C@@H](O)C1` (single isomer, unassigned) [41 (first peak)] is above 10; for `N#CCC1CCC(CO)(n2cnc3cnc4ccsc4c32)CC1` (single isomer, unassigned) [72 (second peak), [4-(Hydroxymethyl)-4-(1H-imidazo[4,5-d]thieno[3,2-b]pyridin-1-yl)cyclohexyl]acetonitrile] it is above 5; for `C[C@@H](O)c1nc2cnc3ccsc3c2n1C1CCNCC1F` (stereo partly drawn) [9 (2nd peak), (1R)-1-[1-(3-Fluoropiperidin-4-yl)-1H-imidazo[4,5-d]thieno[3,2-b]pyridin-2-yl]ethanol] it is above 10.
Regarding `C[C@@H](O)c1nc2cnc3ccsc3c2n1[C@H]1CCCOC1` [Example 1, (1R)-1-{1-[(3S)-Tetrahydro-2H-pyran-3-yl]-1H-imidazo[4,5-d]thieno[3,2-b]pyridin-2-yl}ethanol], the JAK2/JAK1 is above 3.
Then `C[C@@H](O)c1nc2cnc3ccsc3c2n1[C@H]1CC[C@H](CC#N)CC1` [Example 2, (trans-4-{2-[(1R)-1-Hydroxyethyl]-1H-imidazo[4,5-d]thieno[3,2-b]pyridin-1-yl}cyclohexyl)acetonitrile], with above 10; and `C[C@@H](O)c1nc2cnc3ccsc3c2n1[C@H]1CC[C@H](O)CC1` [Example 3, trans-4-{2-[(1R)-1-Hydroxyethyl]-1Z-imidazo[4,5-d]thieno[3,2-b]pyridin-1-yl}cyclohexanol], with above 10.
The figure for `C[C@@H](O)c1nc2cnc3ccsc3c2n1[C@H]1CC[C@H](NCC(F)(F)F)CC1` [Example 4, (1R)-1-(1-{trans-4-[(2,2,2-Trifluoroethyl)amino]cyclohexyl}-1H-imidazo[4,5-d]thieno[3,2-b]pyridin-2-yl)ethanol] is above 10; for `C[C@@H](O)c1nc2cnc3ccsc3c2n1[C@H]1CC[C@H](CCS(C)(=O)=O)CC1` [Example 5, (1R)-1-(1-{trans-4-[2-(Methylsulfonyl)ethyl]cyclohexyl}-1H-imidazo[4,5-d]thieno[3,2-b]pyridin-2-yl)ethanol] it is above 10.
The figure for `C[C@@H](O)c1nc2cnc3ccsc3c2n1[C@H]1CC[C@@H](n2cncn2)CC1` [Example 6, (1R)-1-{1-[cis-4-(1H-1,2,4-Triazol-1-yl)cyclohexyl]-1H-imidazo[4,5-d]thieno[3,2-b]pyridin-2-yl}ethanol] is above 6.
Turning to `C[C@@H](O)c1nc2cnc3ccsc3c2n1[C@H]1CC[C@@H](C#N)CC1` [Example 7, cis-4-{2-[(1R)-1-Hydroxyethyl]-1H-imidazo[4,5-d]thieno[3,2-b]pyridin-1-yl}cyclohexanecarbonitrile], the JAK2/JAK1 is reported as above 10.
The figure for `C[C@@H](O)c1nc2cnc3ccsc3c2n1[C@H]1CC[C@H](CCC#N)CC1` [Example 8, 3-(trans-4-{2-[(1R)-1-Hydroxyethyl]-1H-imidazo[4,5-d]thieno[3,2-b]pyridin-1-yl}cyclohexyl)propanenitrile] is above 10; for `C[C@@H](O)c1nc2cnc3ccsc3c2n1[C@H]1CC[C@H](CC#N)CC1.Cl` [Example 10, (trans-4-{2-[(1R)-1-Hydroxyethyl]-1H-imidazo[4,5-d]thieno[3,2-b]pyridin-1-yl}cyclohexyl)acetonitrile HCl Salt] it is above 10.
The figure for `C[C@@H](O)c1nc2cnc3ccsc3c2n1[C@H]1CC[C@H](CO)CC1` [Example 11, (1R)-1-{1-[trans-4-(Hydroxymethyl)cyclohexyl]-1H-imidazo[4,5-d]thieno[3,2-b]pyridin-2-yl}ethanol] is above 10.
`C[C@@H](O)c1nc2cnc3ccsc3c2n1[C@H]1CC[C@H](CF)CC1` [Example 12, (1R)-1-{1-[trans-4-(Fluoromethyl)cyclohexyl]-1H-imidazo[4,5-d]thieno[3,2-b]pyridin-2-yl}ethanol]: the JAK2/JAK1 was above 10.
Consider `C[C@@H](O)c1nc2cnc3ccsc3c2n1C1CCCCC1` [Example 13, (1R)-1-(1-Cyclohexyl-1H-imidazo[4,5-d]thieno[3,2-b]pyridin-2-yl)ethanol], for which the JAK2/JAK1 is on record as above 10.
Take `CNS(=O)(=O)C[C@H]1CC[C@H](n2c([C@@H](C)O)nc3cnc4ccsc4c32)CC1` [Example 14, 1-(trans-4-{2-[(1R)-1-hydroxyethyl]-1H-imidazo[4,5-d]thieno[3,2-b]pyridin-1-yl}cyclohexyl)-N-methylmethanesulfonamide]: the JAK2/JAK1 is above 5.
The figure for `C[C@@H](O)c1nc2cnc3ccsc3c2n1C1CCN(CC(F)(F)F)CC1` [Example 15, (1R)-1-{1-[1-(2,2,2-Trifluoroethyl)piperidin-4-yl]-1H-imidazo[4,5-d]thieno[3,2-b]pyridin-2-yl}ethanol] is above 9; for `C[C@@H](O)c1nc2cnc3ccsc3c2n1C1CCN(CCC#N)CC1` [Example 16, 3-(4-{2-[(1R)-1-Hydroxyethyl]-1H-imidazo[4,5-d]thieno[3,2-b]pyridin-1-yl}piperidin-1-yl)propanenitrile] it is above 10; for `N#CC[C@H]1CC[C@H](n2c(CO)nc3cnc4ccsc4c32)CC1` [Example 17, {trans-4-[2-(Hydroxymethyl)-1H-imidazo[4,5-d]thieno[3,2-b]pyridin-1-yl]cyclohexyl}acetonitrile] it is above 10.
For `CS(=O)(=O)NCc1nc2cnc3ccsc3c2n1[C@H]1CC[C@H](CC#N)CC1` [Example 18, N-({1-[trans-4-(Cyanomethyl)cyclohexyl]-1H-imidazo[4,5-d]thieno[3,2-b]pyridin-2-yl}methyl)methanesulfonamide], the JAK2/JAK1 is above 10.
Then `C[C@@H](O)c1nc2cnc3ccsc3c2n1[C@H]1CCC(CO)OC1` (stereo partly drawn) [Example 19, (1R)-1-{1-[(3S)-6-(Hydroxymethyl)tetrahydro-2H-pyran-3-yl]-1H-imidazo[4,5-d]thieno[3,2-b]pyridin-2-yl}ethanol], with above 10.
In the case of `C[C@@H](O)c1nc2cnc3ccsc3c2n1[C@H]1CC[C@H](CC#N)OC1` [Example 20, ((2R,5S)-5-{2-[(1R)-1-Hydroxyethyl]-1H-imidazo[4,5-d]thieno[3,2-b]pyridin-1-yl}tetrahydro-2H-pyran-2-yl)acetonitrile], the JAK2/JAK1 is on record as above 10.
Then `C[C@@H](O)c1nc2cnc3ccsc3c2n1[C@H]1CC[C@@H](CC#N)OC1` [Example 21, ((2S,5S)-5-{2-[(1R)-1-Hydroxyethyl]-1H-imidazo[4,5-d]thieno[3,2-b]pyridin-1-yl}tetrahydro-2H-pyran-2-yl)acetonitrile], with above 10; and `CS(=O)(=O)NCc1nc2cnc3ccsc3c2n1[C@H]1CC2CCC1C2` (stereo partly drawn) [Example 22, N-((1-((2S)-Bicyclo[2.2.1]heptan-2-yl)-1H-imidazo[4,5-d]thieno[3,2-b]pyridin-2-yl)methyl)methanesulfonamide], with above 4; and `C[C@@H](O)c1cc2cnc3ccsc3c2n1[C@H]1CC[C@H](CC#N)CC1` [Example 23, (trans-4-{7-[(1R)-1-Hydroxyethyl]-8H-pyrrolo[2,3-d]thieno[3,2-b]pyridin-8-yl}cyclohexyl)acetonitrile], with above 10.
Then `N#CC[C@H]1CC[C@H](n2/c(=N/C#N)[nH]c3cnc4ccsc4c32)CC1.O=C(O)C(F)(F)F` [Example 25, {(2E)-1-[trans-4-(Cyanomethyl)cyclohexyl]-1,3-dihydro-2H-imidazo[4,5-d]thieno[3,2-b]pyridin-2-ylidene}cyanamide Trifluoroacetate], with above 6; and `N#CC[C@H]1CC[C@H](n2c(C3CC3)nc3cnc4ccsc4c32)CC1` [Example 26, [trans-4-(2-Cyclopropyl-1H-imidazo[4,5-d]thieno[3,2-b]pyridin-1-yl)cyclohexyl]acetonitrile], with above 10.
Then `CC(C)c1nc2cnc3ccsc3c2n1[C@H]1CC[C@H](CC#N)CC1` [Example 27, [trans-4-(2-Isopropyl-1H-imidazo[4,5-d]thieno[3,2-b]pyridin-1-yl)cyclohexyl]acetonitrile], with above 10.
Consider `N#CC[C@H]1CC[C@H](n2c(C3CNC3)nc3cnc4ccsc4c32)CC1` [Example 28, [trans-4-(2-Azetidin-3-yl-1H-imidazo[4,5-d]thieno[3,2-b]pyridin-1-yl)cyclohexyl]acetonitrile], for which the JAK2/JAK1 is listed as above 7.
The figure for `CN1CC(c2nc3cnc4ccsc4c3n2[C@H]2CC[C@H](CC#N)CC2)C1` [Example 29, {trans-4-[2-(1-Methylazetidin-3-yl)-1H-imidazo[4,5-d]thieno[3,2-b]pyridin-1-yl]cyclohexyl}acetonitrile] is above 9.
